This is an account of results in paper PMC2994877, “A Full Pharmacological Analysis of the Three Turkey β-Adrenoceptors and Comparison with the Human β-Adrenoceptors” (PLoS ONE, 2010).

Assay [1] has as its target T1, turkey β4C-adrenoceptor (tβ4C) (Meleagris gallopavo, UniProt P43141).
T1 construct: expressed in transfected cells
Put plainly: cell-based. It is filed as cell-based. Particulars: for % isop max: CRE-SPAP, % of 10 µM isoprenaline maximum.

The target in assay [2] is T1, turkey β4C-adrenoceptor (tβ4C). Put plainly: 3H-cAMP accumulation, CHO tβ4C cells. It is filed as cell-based. As to conditions: for % isop max: 3H-cAMP, overall response as % of 10 µM isoprenaline; for % site 1: % of response occurring via site 1, tβ4C.
The subject of assay [3] is parent CHO CRE-SPAP cells. Put plainly: agonist response in parent CHO CRE-SPAP cells. It is filed as cell-based. The source says:
The second piece of pharmacological evidence for more than one conformation is the concentrations of antagonists required to inhibit the CGP12177-stimulatory response. […] This is similar to observations at the β1-adrenoceptor in rodents and mammals [6]–[7] [9] [11]. […] There was no response to any ligands, including CGP12177 in the parent CHO CRE-SPAP cells and thus the CGP12177 agonist response was not occurring at a different receptor natively expressed in the cells.

Assay [4] has as its target T2, turkey β3C-adrenoceptor (tβ3C) (Meleagris gallopavo, UniProt A0A803YLI8). Put plainly: 3H-CGP12177 whole cell binding, CHO tβ3C cells.
Assay [5] addresses T1, turkey β4C-adrenoceptor (tβ4C). Put plainly: cell-based. The assay is classed as binding.
Assay [6] concerns the target T2, turkey β3C-adrenoceptor (tβ3C). Put plainly: CRE-SPAP production, CHO tβ3C cells. The assay is classed as cell-based. As to conditions: for Emax: read-out: % isop max.
For a further assay, the target named is Human β1-adrenoceptor. Details: method as in PMID 15655528, PMID 20590599. Particulars: Human β1, given for comparison; ref 25 and 30; cited from earlier work.
The target in a further assay is Human β2-adrenoceptor. More on the design: method as in PMID 15655528, PMID 20590599. Particulars: Human β2, given for comparison; ref 25 and 30; cited from earlier work.
The next assay addresses Human β3-adrenoceptor. Particulars: Human β3, given for comparison; ref 25 and 30; cited from earlier work.
In assay [7] the test system is parent CHO cells. Put plainly: 3H-CGP12177 binding, parent CHO cells. As to conditions: parent CHO cells without transfected receptor. On the procedure: Cells were grown to confluence in white-sided tissue culture treated 96-well view plates. ^3H-CGP12177 whole cell binding was performed as previously described. […] For competition binding, the media was removed from each well, 100 µl of serum-free media containing the competing ligand at twice the final required concentration was added to each well followed immediately by a 100 µl of a fixed concentration of ^3H-CGP12177 (1∶2 dilution in well, final well concentrations of 1.24 nM to 12.10 nM). The cells were incubated for 2 hours at 37°C, 5% CO2 humidified atmosphere. For all plates, the cells were washed twice by the addition and removal of 200 µl 4°C phosphate buffered saline. 100 µl Microscint 20 was added to each well, a white sticky base applied to the underside and a sealant top applied to the top of the plate. The plates were left at room temperature overnight in the dark and the plates counted on a Topcount at 21°C for 2 minutes per well.

For assay [8], the system named is parent CHO cells. As to the kind of experiment: 3H-cAMP accumulation, parent CHO cells. Particulars: parent CHO cells without transfected receptor.
Assay [9] deals with T2, turkey β3C-adrenoceptor (tβ3C).
For assay [10] the target is unchanged. Put plainly: cell-based.
The mark [11] stands for this setting: competition with 3H-CGP12177, whole cells, CHO tβ4C, given as log KD, mean ± s.e.m., read-out: Log KD (converted).
[12] abbreviates: CRE-SPAP production, CHO tβ4C cells, read-out: Log EC50 (converted).

Like-named read-outs stand apart in the source and are kept apart here.

T1 sequence (P43141 whole entry): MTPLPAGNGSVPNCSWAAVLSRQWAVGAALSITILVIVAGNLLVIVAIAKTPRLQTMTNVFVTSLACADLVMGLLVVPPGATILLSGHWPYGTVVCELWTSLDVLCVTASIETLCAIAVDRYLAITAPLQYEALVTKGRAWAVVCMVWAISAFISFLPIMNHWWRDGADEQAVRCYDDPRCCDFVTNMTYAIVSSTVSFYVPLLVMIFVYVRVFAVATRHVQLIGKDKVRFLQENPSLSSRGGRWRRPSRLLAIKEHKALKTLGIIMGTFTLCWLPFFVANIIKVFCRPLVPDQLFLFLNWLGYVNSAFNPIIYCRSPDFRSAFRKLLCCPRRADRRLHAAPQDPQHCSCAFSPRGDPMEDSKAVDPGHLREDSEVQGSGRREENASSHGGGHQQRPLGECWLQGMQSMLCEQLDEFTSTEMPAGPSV
T2 sequence (A0A803YLI8 entry or part of it): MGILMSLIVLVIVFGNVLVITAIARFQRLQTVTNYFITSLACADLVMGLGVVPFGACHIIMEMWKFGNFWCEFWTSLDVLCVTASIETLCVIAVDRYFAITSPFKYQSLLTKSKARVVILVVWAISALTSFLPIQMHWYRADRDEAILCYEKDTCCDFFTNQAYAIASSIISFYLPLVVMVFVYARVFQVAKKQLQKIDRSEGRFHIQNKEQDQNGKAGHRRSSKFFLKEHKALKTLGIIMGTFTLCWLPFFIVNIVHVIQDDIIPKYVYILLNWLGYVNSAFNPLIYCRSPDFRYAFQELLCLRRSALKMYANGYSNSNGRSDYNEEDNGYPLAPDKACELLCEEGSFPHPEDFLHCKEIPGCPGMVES

In the case of `CC(C)(C)NCC(O)COc1cccc2[nH]c(=O)[nH]c12` (stereo not shown) [CGP12177], the “% isop max” value in [1] (CHO tβ4C cells) is recorded as 53.4±2.2%; in assay [2] (tβ4C), 17.4±0.7%. Besides, the “% site 1” value in assay [2] worked out at 41.3±7.2%. For the same compound, in [3], the agonist response entry is recorded as “no response”.
Regarding `NC[C@H](O)c1ccc(O)c(O)c1` [Noradrenaline], the Kd was 11500 nM in assay [4] and 501 nM in [5] (setting [11]). Moreover, the EC50 in [6] is 417 nM; in [1] (setting [12]), 81.3 nM. Also, the Emax in assay [6] was 102 ± 3%. The “% isop max” value in [1] (CHO tβ4C cells) is listed as 102.3±2.5%. Also, the “Log KD” value on Human β1-adrenoceptor is −5.74; at Human β2-adrenoceptor, −5.41; at Human β3-adrenoceptor, −5.53.
Take ^3H-CGP12177: the Kd worked out at 0.29 ± 0.02 nM in [4] (read-out: KD of 3H-CGP12177, saturation binding, stable CHO tβ3C cell line) and 0.58 ± 0.06 nM in assay [5] (read-out: KD of 3H-CGP12177, saturation binding, stable CHO tβ4C cell line). Moreover, the “specific binding of 3H-CGP12177” value in the assay with parent CHO cells [7] is given as “no specific binding”.
As for `CC(CCc1ccc(O)cc1)NCCc1ccc(O)c(O)c1` (stereo not shown) [Dobutamine], the Kd in assay [4] (competition with 3H-CGP12177, whole cells, CHO tβ3C, given as log KD, mean ± s.e.m., read-out: Log KD (converted)) is 2690 nM; in [5] (setting [11]) it was 1000 nM. For the same compound, the EC50 in assay [6] (CRE-SPAP production, CHO tβ3C cells, read-out: Log EC50 (converted)) was 427 nM; in [1] (setting [12]), 158 nM. The Emax in assay [6] stood at 101 ± 3.7%. Also, the “% isop max” value in assay [1] (CHO tβ4C cells) amounted to 110.4±2.4%. Further, the “Log KD” value on Human β1-adrenoceptor is listed as −5.23; on Human β2-adrenoceptor, −5.84; at Human β3-adrenoceptor, −5.09.
Regarding `CC(C)(C)NCC(O)c1cc(Cl)c(N)c(Cl)c1` (stereo not shown) [Clenbuterol], the dissociation constant (Kd) in assay [4] is 41.7 nM; in [5] it was 363 nM. For the same compound, the EC50 was 0.525 nM in assay [6] and 40.7 nM in [1]. Further, the Emax in [6] is 97.8 ± 4.4%. Also, the “% isop max” value in assay [1] (CHO tβ4C cells) is 97.2±1.9%. The “Log KD” value at Human β1-adrenoceptor is −6.62; at Human β2-adrenoceptor, −7.90; at Human β3-adrenoceptor, −5.35.
Consider `C=C[C@@]1(C)CC(=O)[C@]2(O)[C@@]3(C)[C@@H](O)CCC(C)(C)[C@@H]3[C@H](O)[C@H](OC(C)=O)[C@@]2(C)O1` [forskolin], for which the 3H-cAMP accumulation response in the assay on parent CHO cells [8] is on record as 21.5±2.2 fold over basal.
With `CC(Cc1ccc(O)cc1)NCC(O)c1cc(O)cc(O)c1` (stereo not shown) [Fenoterol], the Kd in [4] is 204 nM; in assay [5], 603 nM. In addition, the results for the concentration giving a half-maximal response (EC50) in assay [6] and in [1] were 0.832 nM and 8.51 nM, respectively. For the same compound, the “Log KD” value at Human β1-adrenoceptor is −5.04; at Human β2-adrenoceptor it was −7.03; at Human β3-adrenoceptor, −5.39.
In assay [4], `CC(C)(C)NC[C@H](O)COc1cccc2[nH]c(C#N)cc12` [S-Cyanopindolol] showed a Kd of 0.00427 nM. For the same compound, the “shape of agonist concentration response” value is on record as “two component response” in [2] (3H-cAMP accumulation, tβ4C) and “one-component response” in assay [9] (3H-cAMP accumulation, tβ3C). Moreover, in [2] (tβ4C), the “% isop max” value amounted to 16.4±2.7%. Moreover, the “% site 1” value in assay [2] is 44.4±2.0%; in assay [9] (% of response occurring via site 1, tβ3C) it was 100%. In addition, in assay [9] (3H-cAMP accumulation, tβ3C, one-component response (same value as EC501)), the “Log EC502” value is listed as −10.60±0.13. The “Log KD” value at Human β3-adrenoceptor is on record as −8.36. The compound also gave an EC50 in [10] of 0.0251 nM. In assay [10] (read-out: % isop max), the Emax came out at 4.6 ± 0.7%.
